The text below walks through data of patent US10730850B2, “Pyridinylmethyl carbamimidoylcarbamate derivatives and their use as AOC3 inhibitors” (Boehringer Ingelheim International GmbH, priority 2016, dated 2020).

For orientation: IC50 means the midpoint of a concentration-inhibition curve.

This assay deals with AOC3 (Homo sapiens (Human), UniProt Q16853). Kind of assay: MAO-Glo AOC3 assay (recombinant CHO cells overexpressing AOC3). It counts as biochemical. As to conditions: Table 1, read-out: AOC3 IC50. An excerpt: The MAO-Glo™ Assay (commercial available from PROMEGA, # V1402) provides a sensitive method for the measurement of monoamine oxidase (MAO) activity (Valley, M. P. et al., 2006, Anal. Biochem. 359: 238-246) from a variety of tissues, biofluids or recombinant expressed or purified enzymes. As substrate a derivate of the beetle luciferin ((4S)-4,5-dihydro-2-(6-hydroxybenzothiazolyl)-4-thiazole-carboxylic acid) is used, which is oxidized at a primary amine moiety. After a spontaneous elimination and a catalyzed esterase reaction, the turnover of the luciferine by the luciferase is recorded as a signal of AOC3 activity.
AOC3, sequence (Q16853 whole entry): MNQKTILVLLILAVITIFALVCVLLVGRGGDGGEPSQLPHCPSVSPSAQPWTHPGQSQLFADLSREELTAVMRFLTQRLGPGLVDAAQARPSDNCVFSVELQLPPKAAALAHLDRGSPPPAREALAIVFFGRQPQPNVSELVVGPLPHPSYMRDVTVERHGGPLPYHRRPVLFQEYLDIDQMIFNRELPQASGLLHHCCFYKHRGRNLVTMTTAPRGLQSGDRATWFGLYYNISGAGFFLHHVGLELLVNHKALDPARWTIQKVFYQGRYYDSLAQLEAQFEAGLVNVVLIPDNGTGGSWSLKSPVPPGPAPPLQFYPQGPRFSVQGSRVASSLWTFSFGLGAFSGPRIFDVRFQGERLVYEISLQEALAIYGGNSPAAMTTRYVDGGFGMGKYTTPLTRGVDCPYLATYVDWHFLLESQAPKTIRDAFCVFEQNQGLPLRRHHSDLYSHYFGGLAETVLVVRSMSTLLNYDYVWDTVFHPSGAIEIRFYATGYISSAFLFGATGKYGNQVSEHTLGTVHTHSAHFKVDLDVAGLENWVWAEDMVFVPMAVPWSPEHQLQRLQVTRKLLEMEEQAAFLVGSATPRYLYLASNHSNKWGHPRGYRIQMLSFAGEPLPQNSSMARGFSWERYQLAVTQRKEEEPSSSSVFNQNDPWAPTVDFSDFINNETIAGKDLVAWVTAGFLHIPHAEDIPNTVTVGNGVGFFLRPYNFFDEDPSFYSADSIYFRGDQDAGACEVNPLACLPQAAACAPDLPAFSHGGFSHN
An aliquot of 3 μL of the compound dilution is added to a 384 well plate (Optiplate, PS, flat bottom, white, PERKIN ELMER, #6007290) with a final DMSO concentration of 6.6%. Recombinant CHO cells, overexpressing the human (1500 cells/well), mouse (1000 cells/well) or rat (500 cells/well) AOC3 enzyme are diluted in reaction buffer and added in a volume of 15 μL to the wells. After incubation for 20 minutes at 37° C., 2 μL of MAO substrate (dissolved in DMSO at 16 mM, adjusted to assay concentration in reaction buffer to a final assay concentration of 20 μM) is added and further incubated for 60 minutes at 37° C. The turnover of the substrate is determined by the addition of 20 μL of the detection-mix which was generated by the addition of reconstitution buffer with esterase (PROMEGA, # V1402) to the luciferine detection reagent (PROMEGA, # V1402). After an incubation period of 20 minutes, the luminescent signal is measured with Envision 2104 Multilabel Reader (PERKIN ELMER).
In the following table the activity expressed as IC50 (nM) of compounds according to the invention is presented wherein the IC50 values are determined in the MAO-Glo™ AOC3 assay as described hereinbefore. The term “Example” refers to the example numbers according to the following experimental section.

Turning to `CCc1ccc(N2CCN(c3nccc(COC(=O)NC(=N)N)c3F)CC2)cc1` [Example 1.062], the IC50 is 11 nM.

For the molecule `N=C(N)NC(=O)OCc1ccnc(N2CCN(c3ncncn3)CC2)c1F` [Example 1.018], the IC50 is 17 nM. For `N=C(N)NC(=O)OCc1ccnc(N2CCN(c3cccnn3)CC2)c1F` [Example 1.013], the IC50 is 22 nM. Turning to `N=C(N)NC(=O)OCc1ccnc(N2CC=C(c3ncco3)CC2)c1F` [Example 1.004], the IC50 was 38 nM. The result for `Cc1cccc(C2CCN(c3nccc(COC(=O)NC(=N)N)c3F)CC2)c1` [Example 1.028] reads 10 nM.

For `N=C(N)NC(=O)OCc1ccnc(N2CC(c3ccc(OCC4CC4)cc3)C2)c1F` [Example 1.081], the IC50 was determined as 22 nM. Regarding `N=C(N)NC(=O)OCc1ccnc(N2CCC(c3nccs3)CC2)c1F` [Example 1.022], the IC50 came out at 49 nM.

With `Cc1ccc(N2CCN(c3nccc(COC(=O)NC(=N)N)c3F)CC2)cc1C` [Example 1.063], the IC50 amounted to 13 nM.

Consider `N=C(N)NC(=O)OCc1ccnc(N2CCC(N3CCC(C(N)=O)CC3)CC2)c1F` [Example 1.088], for which the IC50 came out at 48 nM. The result for `N#Cc1ccc(N2CCN(c3nccc(COC(=O)NC(=N)N)c3F)CC2)c(C(F)(F)F)c1` [Example 1.105] reads 31 nM.

Take `N=C(N)NC(=O)OCc1ccnc(N2CCC(N3CCOC3=O)CC2)c1F` [Example 1.026]: the IC50 was 111 nM. As for `N#CC1CCN(C2CCN(c3nccc(COC(=O)NC(=N)N)c3F)CC2)CC1` [Example 1.070], the figure is 77 nM; as for `N=C(N)NC(=O)OCc1ccnc(N2CCC(c3cccc(Cl)c3)CC2)c1F` [Example 1.075], 14 nM; as for `N=C(N)NC(=O)OCc1ccnc(N2CCC3(C=Cc4ccccc43)CC2)c1F` [Example 1.049], 22 nM. As for `N=C(N)NC(=O)OCc1ccnc(N2CCN(c3nccs3)CC2)c1F` [Example 1.024], the figure is 18 nM; as for `CC1CN(c2nccc(COC(=O)NC(=N)N)c2F)CCN1c1ccccc1` (stereo not shown) [Example 1.035], 14 nM; as for `N=C(N)NC(=O)OCc1ccnc(N2CC=C(c3ccccn3)CC2)c1F` [Example 1.006], 18 nM. For the molecule `Cc1ccc(N2CCN(c3nccc(COC(=O)NC(=N)N)c3F)CC2)cc1` [Example 1.032], the IC50 came out at 11 nM. On to `N=C(N)NC(=O)OCc1ccnc(N2CCC(N3CC[S+]([O-])CC3)CC2)c1F` [Example 1.080], for which the IC50 stood at 86 nM. For the molecule `N#Cc1cnc(N2CCN(c3nccc(COC(=O)NC(=N)N)c3F)CC2)nc1` [Example 1.059], the half-maximal inhibitory concentration (IC50) turned out to be 16 nM. As for `COC(=O)c1ccc(N2CCN(c3nccc(COC(=O)NC(=N)N)c3F)CC2)nn1` [Example 1.094], the figure is 14 nM; as for `N#Cc1ccc(C2CN(c3cccc(COC(=O)NC(=N)N)n3)C2)cc1` [Example 1.003], 16 nM. Regarding `Cc1cnc(C2=CCN(c3nccc(COC(=O)NC(=N)N)c3F)CC2)o1` [Example 1.015], the IC50 amounted to 17 nM.

`N=C(N)NC(=O)OCc1ccnc(N2CCC(c3ncc(Cl)cn3)CC2)c1F` [Example 1.079]: the IC50 stood at 11 nM. As for `COC(=O)c1cnc(N2CCN(c3nccc(COC(=O)NC(=N)N)c3F)CC2)nc1` [Example 1.093], the figure is 17 nM. The result for `N=C(N)NC(=O)OCc1ccnc(N2CCC(N3CCCCC3=O)CC2)c1F` [Example 1.046] reads 128 nM; that for `N=C(N)NC(=O)OCc1ccnc(N2CCN(c3ccccc3)CC2)c1F` [Example 1.009], 41 nM. As for `CN(C)Cc1ccc(C2CCN(c3nccc(COC(=O)NC(=N)N)c3F)CC2)cc1` [Example 1.090], the IC50 turned out to be 10 nM. As for `N=C(N)NC(=O)OCc1ccnc(N2CCN(c3ncccn3)CC2)c1F` [Example 1.014], the IC50 was determined as 41 nM.

On to `N=C(N)NC(=O)OCc1ccnc(N2CC=C(c3ncc(F)cn3)CC2)c1F` [Example 1.042], for which the IC50 came to 28 nM. Regarding `N=C(N)NC(=O)OCc1ccnc(N2CCN(c3ncc(C(F)(F)F)cn3)CC2)c1F` [Example 1.098], the IC50 stood at 15 nM.

With `COc1cnc(C2CCN(c3nccc(COC(=O)NC(=N)N)c3F)CC2)nc1` [Example 1.071], the IC50 worked out at 8 nM.

Regarding `COc1cnc(N2CCN(c3nccc(COC(=O)NC(=N)N)c3F)CC2)nc1` [Example 1.073], the half-inhibitory concentration (IC50) came out at 10 nM.

`N=C(N)NC(=O)OCc1ccnc(N2CCC(c3ccc(C(F)(F)F)cc3)CC2)c1F` [Example 1.096]: the IC50 came out at 12 nM. The result for `N=C(N)NC(=O)OCc1ccnc(N2CC=C(c3ncccn3)CC2)c1F` [Example 1.007] reads 96 nM; that for `N=C(N)NC(=O)OCc1ccnc(N2CCC(C3CCCCC3)CC2)c1F` [Example 1.020], 35 nM; that for `Cc1ccccc1N1CCN(c2nccc(COC(=O)NC(=N)N)c2F)CC1` [Example 1.034], 58 nM. For `N=C(N)NC(=O)OCc1ccnc(N2CC(c3ccccn3)C2)c1F` [Example 1.002], the IC50 turned out to be 172 nM. As for `N=C(N)NC(=O)OCc1ccnc(N2CCC(c3ccc(C(=O)O)cc3)CC2)c1F` [Example 1.082], the figure is 2 nM; as for `Cc1ccc(C2CCN(c3nccc(COC(=O)NC(=N)N)c3F)CC2)cc1` [Example 1.029], 9 nM. As for `N=C(N)NC(=O)OCc1ccnc(N2CCN(c3ncc(F)cn3)CC2)c1F` [Example 1.045], the figure is 24 nM; as for `CC(C)(C)OC(=O)N1CC(C2CCN(c3nccc(COC(=O)NC(=N)N)c3F)CC2)C1` [Example 1.102], 65 nM.

Regarding `N=C(N)NC(=O)OCc1ccnc(N2CC3CC2CN3c2cccc(F)c2)c1F` (stereo not shown) [Example 1.066], the IC50 came out at 278 nM. In the case of `N=C(N)NC(=O)OCc1ccnc(N2CCC3(CCc4ccccc43)CC2)c1F` [Example 1.053], the IC50 stood at 83 nM. For `N=C(N)NC(=O)OCc1ccnc(N2CCN(c3ccc(C(F)(F)F)cc3)CC2)c1F` [Example 1.097], the IC50 was 11 nM.

`Cc1ccc(N2CCN(c3nccc(COC(=O)NC(=N)N)c3F)CC2)nc1` [Example 1.038]: the IC50 was 14 nM. The result for `Cc1cnc(C2=CCN(c3nccc(COC(=O)NC(=N)N)c3F)CC2)nc1` [Example 1.030] reads 23 nM; that for `N=C(N)NC(=O)OCc1ccnc(N2CCN(c3ccccc3Cl)CC2)c1F` [Example 1.076], 39 nM. The result for `CCOc1ccc(C2CCN(c3nccc(COC(=O)NC(=N)N)c3F)CC2)cn1` [Example 1.087] reads 12 nM. As for `Cc1cccc(C)c1N1CCN(c2nccc(COC(=O)NC(=N)N)c2F)CC1` [Example 1.060], the figure is 217 nM; as for `N=C(N)NC(=O)OCc1ccnc(N2CC(c3ccccc3)C2)c1F` [Example 1.001], 98 nM. With `N=C(N)NC(=O)OCc1ccnc(N2CCC(N3CCOCC3)CC2)c1F` [Example 1.025], the IC50 worked out at 92 nM. The result for `N#Cc1ccc(N2CCN(c3nccc(COC(=O)NC(=N)N)c3F)CC2)cn1` [Example 1.057] reads 3 nM; that for `N=C(N)NC(=O)OCc1ccnc(N2CCC(c3ccccc3)CC2)c1F` [Example 1.008], 15 nM. As for `N=C(N)NC(=O)OCc1ccnc(N2CCN(c3ccccn3)CC2)c1F` [Example 1.012], the figure is 62 nM; as for `N=C(N)NC(=O)OCc1ccnc(N2CC=C(c3ccc(Cl)cc3)CC2)c1F` [Example 1.069], 15 nM; as for `N=C(N)NC(=O)OCc1ccnc(N2CCN(C3CCCC3)C(=O)C2)c1F` [Example 1.021], 26 nM.

As to `Cc1cnc(C2CCN(c3nccc(COC(=O)NC(=N)N)c3F)CC2)o1` [Example 1.019], the IC50 turned out to be 84 nM. As for `N=C(N)NC(=O)OCc1ccnc(N2CCN(c3ccccc3F)CC2)c1F` [Example 1.043], the figure is 13 nM; as for `N=C(N)NC(=O)OCc1ccnc(N2C3CCC2CC(c2ccccc2)C3)c1F` (stereo not shown) [Example 1.052], 84 nM. As to `N=C(N)NC(=O)OCc1ccnc(N2CC=C(c3ccccc3)CC2)c1F` [Example 1.005], the IC50 was found to be 17 nM.
